Data: patent publication US20160374944A1, “COMPOSITIONS AND METHODS FOR TREATING AND PREVENTING CANCER BY TARGETING AND INHIBITING CANCER STEM CELLS” (priority 2011, published 2016)

Columns and labels:
Pancreatic CSCs [1] = test: caspase-3/7 activity; assay type: cell-based, human
Experimental: (§1) (A and B) Induction of apoptosis and activation of caspase-3/-7. Pancreatic CSCs were treated with rottlerin (0-2 μM) for 48 h, and apoptosis and caspase-3/-7 activity were measured by […] and colorometric assay, respectively. […] (C) Pancreatic CSCs were treated with rottlerin (0-1 μM) for 48 h, and the expression of Bcl-2, XIAP and Survivin was measured by qRT-PCR and normalized to GAPDH.
(§2) (A) Regulation of caspase-3/7 activity by EGCG. CSCs were treated with EGCG (0-60 μM) for 24 h, and caspase-3/7 activity was measured as per manufacturer's instructions. […] (B) Regulation of apoptosis by EGCG. CSCs were treated with EGCG (0-60 μM) for 48 h, and apoptosis was measured by TUNEL assay. […] (C) Regulation of apoptosis-related proteins. Pancreatic CSCs were treated with EGCG (0-60 μM) for 36 h. Real time PCR (q-RT-PCR) was performed to examine the expression of Bcl-2, survivin, XIAP, and GAPDH.

Pancreatic CSCs [2] = test: gene expression by qRT-PCR; assay type: cell-based, human
Experimental: FIG. 19 is a graph showing the regulation by rottlerin of cMyc, Nanog, Oct-4, and Sox-2 in pancreatic CSCs. Pancreatic CSCs were treated with rottlerin (0-1 μM) for 24 h. The expression of Nanog, Sox-2 and cMyc was measured by qRT-PCR and normalized to GAPDH.
(A) Pancreatic CSCs were treated with rottlerin (0-1 μM) for 24 h. The expression of Patched-1, Smo and Gli-2 was measured by qRT-PCR. […] (B) Pancreatic CSCs were transduced with Gli-responsive GFP/firefly luciferase viral particles (pGreen Fire1-Gli with EF1, System Biosciences). After transduction, culture medium was replaced and CSCs were treated with rottlerin (0-2 μM) for 24 h. Gli-responsive reporter activity was measured using a luciferase assay (Promega Corporation).
as §1
(A and B) Pancreatic CSCs were treated with rottlerin (0-1 μM) for 24 h. The expression of Zeb-1 and Slug was measured by the qRT-PCR and normalized to GAPDH. […] (C) In vitro Matrigel invasion assay. CSCs were plated onto the Matrigel-coated membrane in the top chamber of the transwell and treated with rottlerin (0-2 μM) for 48 h. Cells invaded to the lower chamber were fixed with methanol, stained with crystal violet and photo micrographed.
as §2
[…] At the end of incubation period, cells were harvested and the expression of Nanog, Sox-2, c-Myc and Oct-4 was measured by the q-RT-PCR. […] (B) Nanog shRNA enhances the inhibitory effects of EGCG on CSC's spheroid viability. Pancreatic CSCs were transduced with either scrambled shRNA or Nanog shRNA expressing lentiviral vector (pLKO.1), and cell lysates were collected and western blot analysis was performed using anti-Nanog antibody (data not shown). CSC/scrambled and CSC/Nanog shRNA were seeded as described above and treated with EGCG (0-60 μM). After 7 days, spheroids were collected and cell suspensions were prepared and viable cells were counted by trypan blue assay.
FIG. 40A and FIG. 40C are graphs and photographs showing the inhibition of components of sonic hedgehog pathway, Gli transcription and nuclear translocation by EGCG. (A) Inhibition of components of sonic hedgehog pathway and Gli transcription. Pancreatic CSCs were treated with EGCG (0-60 μM) for 36 h. The expression of Smothened (Smo), patched 1 (PTCH1), patched 2 (PTCH2), was measured by q-RT-PCR. […] (B) Inhibition of Gli1 and Gli2 expression and Gli transcription. Pancreatic CSCs were treated with EGCG (0-60 μM) for 36 h. The expression of Gli1 and Gli2 was measured by q-RT-PCR. Gli reporter activity. CSCs were transduced with Gli-responsive GFP/firefly luciferase viral particles (pGreen Fire1-Gli with EF1, System Biosciences). After transduction, culture medium was replaced and CSCs were treated with EGCG (0-60 μM) for 24 h. Gli-responsive reporter activity was measured by luciferase assay (Promega Corporation). […] (C) EGCG inhibits nuclear translocation of Gli1 and Gli2. Pancreatic CSCs were treated with or without EGCG (40 or 60 μM) for 24 h. At the end of incubation period, CSCs were fixed with paraformaldehyde, permeabilized with titron X100, and blocked with 5% normal goat serum. […]

[3] = qRT-PCR, rottlerin 0-1 μM, 24 h
[4] = qRT-PCR, rottlerin 0-1 μM, 48 h

O=C(O[C@@H]1Cc2c(O)cc(O)cc2O[C@@H]1c1cc(O)c(O)c(O)c1)c1cc(O)c(O)c(O)c1 [EGCG, epigallocatechin gallate]
caspase-3/7 activity (Pancreatic CSCs [1]; EGCG 0-60 μM, 24 h): induced caspase-3/7 activity and apoptosis in pancreatic CSCs in a dose-dependent manner | expression of Bcl-2 (Pancreatic CSCs [2]; q-RT-PCR, EGCG 0-60 μM, 36 h): inhibited the expression | expression of Gli1 (Pancreatic CSCs [2]; q-RT-PCR, EGCG 0-60 μM, 36 h): inhibited the expression | expression of Gli2 (Pancreatic CSCs [2]; q-RT-PCR, EGCG 0-60 μM, 36 h): inhibited the expression | expression of Nanog (Pancreatic CSCs [2]; q-RT-PCR, EGCG 0-60 μM, 36 h): inhibited the expression | expression of Oct-4 (Pancreatic CSCs [2]; q-RT-PCR, EGCG 0-60 μM, 36 h): inhibited the expression | expression of Patched-1 (Pancreatic CSCs [2]; q-RT-PCR, EGCG 0-60 μM, 36 h): inhibited the expression | expression of Patched-2 (Pancreatic CSCs [2]; q-RT-PCR, EGCG 0-60 μM, 36 h): inhibited the expression | expression of Sox-2 (Pancreatic CSCs [2]; q-RT-PCR, EGCG 0-60 μM, 36 h): no effect on the expression | expression of XIAP (Pancreatic CSCs [2]; q-RT-PCR, EGCG 0-60 μM, 36 h): inhibited the expression | expression of c-Myc (Pancreatic CSCs [2]; q-RT-PCR, EGCG 0-60 μM, 36 h): inhibited the expression | expression of smoothened (SMO) (Pancreatic CSCs [2]; q-RT-PCR, EGCG 0-60 μM, 36 h): inhibited the expression | expression of survivin (Pancreatic CSCs [2]; q-RT-PCR, EGCG 0-60 μM, 36 h): inhibited the expression | expression of Slug (Pancreatic CSCs [2]; q-RT-PCR, EGCG 0-60 μM, 48 h): inhibited the expression | expression of Snail (Pancreatic CSCs [2]; q-RT-PCR, EGCG 0-60 μM, 48 h): inhibited the expression | expression of ZEB1 (Pancreatic CSCs [2]; q-RT-PCR, EGCG 0-60 μM, 48 h): inhibited the expression

CC(=O)c1c(O)c(C)c(O)c(Cc2c(O)c3c(c(C(=O)/C=C/c4ccccc4)c2O)OC(C)(C)C=C3)c1O [rottlerin]
caspase-3/-7 activity (Pancreatic CSCs [1]; rottlerin 0-2 μM, 48 h, colorometric assay): induced | expression of Gli2 (Pancreatic CSCs [2]; [3]): inhibited the expression | expression of Nanog (Pancreatic CSCs [2]; [3]): inhibited the expression | expression of Patched-1 (Pancreatic CSCs [2]; [3]): inhibited the expression | expression of Slug (Pancreatic CSCs [2]; [3]): inhibited the expression | expression of Smo (Pancreatic CSCs [2]; [3]): inhibited the expression | expression of Sox-2 (Pancreatic CSCs [2]; [3]): inhibited the expression | expression of Zeb-1 (Pancreatic CSCs [2]; [3]): inhibited the expression | expression of cMyc (Pancreatic CSCs [2]; [3]): inhibited the expression | expression of Bcl-2 (Pancreatic CSCs [2]; [4]): inhibited the expression | expression of XIAP (Pancreatic CSCs [2]; [4]): inhibited the expression | expression of survivin (Pancreatic CSCs [2]; [4]): inhibited the expression
